According to PMC5855550, “Pharmacokinetic Study of Bioactive Flavonoids in the Traditional Japanese Medicine Keigairengyoto Exerting Antibacterial Effects against Staphylococcus aureus” (International Journal of Molecular Sciences, 2018):

Key:
[1] = system: RAW264.7 cells; experiment: Macrophage culture assay: phagocytosis of FITC-conjugated S. aureus; type: cell-based, mouse; conditions: for Phagocytosis relative change versus control / Phagocytosis MFI: IFN-γ 0.5 ng/mL; for Phagocytosis MFI: mean ± SEM of triplicates
Description: Cells of the mouse macrophage cell line RAW264.7 (ATCC, Manassas, VA, USA) were grown in Dulbecco’s modified Eagles medium supplemented with 10% fetal bovine serum (FBS), 4.5 g/L glucose, 2 mmol/L L-glutamine, 100 U/mL penicillin, 100 µg/mL streptomycin, and 10 mmol/L HEPES. […] After 3 days’ incubation at 37 °C, culture fluids were removed and replaced by warm medium containing 30 μg/mL FITC-conjugated S. aureus. After 30 min incubation in a 5% CO2 incubator, cells were harvested using cold PBS containing 2 mmol/L EDTA, washed, and fixed for 15 min at 4 °C with phosphate buffer containing 4% paraformaldehyde (pH 7.4). FITC-positive cells were determined using a FACSaria II flow cytometer and DIVA 8.0.1 software (Becton Dickinson, San Jose, CA, USA). Phagocytic activity is expressed as the mean fluorescence intensity (MFI) from individual cells.

[2] = in vivo
Description: To specifically deconjugate glucuronides, 80 μL of plasma sample was incubated with 50 μL of β-glucuronidase solution containing 200 units/mL β-glucuronidase from Escherichia coli (Sigma-Aldrich) for 2 h at 37 °C. The deconjugation reaction was stopped by adding ethyl acetate or by refrigerating the mixture considering the following procedures. This pretreated solution was injected into the two liquid chromatography–mass spectrometry with tandem mass spectrometry (LC-MS/MS) systems after pooling with an internal standard solution of niflumic acid (Sigma-Aldrich) or atropine (Wako Pure Chemical Industries, Osaka, Japan).
For quantification of apigenin, wogonin, wogonoside, hesperetin, naringenin, liquiritigenin, genistein, and luteolin in β-glucuronidase-naive (untreated) plasma, 200 µL plasma samples were pretreated by liquid-liquid extraction using ethyl acetate. The total supernatant was collected, dried, and concentrated using a centrifugal evaporator. The dried residue was then dissolved in 60 μL of the specific HPLC mobile phase used for each analytical method, and a 10 or 20 μL volume injected into the LC-MS/MS system.
For quantification of baicalin, baicalein, and berberine in untreated plasma, 80 µL of plasma was pretreated by solid-phase extraction using Oasis HLB 96-well µElution plate (Waters, Milford, MA, USA). The methanol eluates were collected, dried, and dissolved in 60 μL of the specific HPLC mobile phase. A 10 or 20 μL volume was then injected into the LC-MS/MS system.
For quantification of glycyrrhizic acid and glycyrrhetinic acid in untreated plasma, 100 µL plasma samples were pretreated by deproteinization using methanol. The supernatant was collected, dried, and concentrated using a centrifugal evaporator. The dried residue was then dissolved in 60 μL of the specific HPLC mobile phase used for the analytical method, and a 10 μL volume injected into the LC-MS/MS system.
For quantification of wogonin, wogonoside, hesperetin, naringenin, liquiritigenin, and genistein in treated plasma, the reaction solutions after deconjugation reactions were pretreated by liquid-liquid extraction. The supernatant was dissolved in 120 μL of the specific HPLC mobile phase, and a 10 or 15 μL volume injected into the LC-MS/MS system.
For quantification of apigenin, luteolin, baicalin, baicalein, and berberine in treated plasma, the reaction solutions after deconjugation were pretreated by solid-phase extraction by the method described above, and 10 or 15 μL of the solution dissolved in 50 μL of the specific HPLC mobile phase was injected into the LC-MS/MS system.
Pharmacokinetic parameters of flavonoids and glucuronide metabolites in KRT-administrated plasma with or without β-glucuronidase treatment were analyzed by noncompartmental modeling using Phoenix WinNonlin (version 6.3, Certara L.P., St. Louis, MO, USA) to determine various pharmacokinetic constants, including Cmax, tmax, t1/2, and AUC0–last. The t1/2 was […] loge2/ke, where ke is the terminal elimination rate constant determined from at least three data points on the descending linear limb.

[3] = target: T1, β-glucuronidase (Mus musculus, UniProt P12265); experiment: Conversion assay of baicalin to baicalein by macrophages, macrophage lysate and skin homogenate; type: in vitro ADME; conditions: baicalin 10 μmol/L; 24 h incubation; living macrophages (RAW264.7), also lysates of macrophages and skin
T1 construct: endogenous in cells; host or cells: RAW264.7 cells (live or lysate); alternatively back-skin homogenate supernatant of naive mice (tissue)
T1 sequence (P12265 23-648): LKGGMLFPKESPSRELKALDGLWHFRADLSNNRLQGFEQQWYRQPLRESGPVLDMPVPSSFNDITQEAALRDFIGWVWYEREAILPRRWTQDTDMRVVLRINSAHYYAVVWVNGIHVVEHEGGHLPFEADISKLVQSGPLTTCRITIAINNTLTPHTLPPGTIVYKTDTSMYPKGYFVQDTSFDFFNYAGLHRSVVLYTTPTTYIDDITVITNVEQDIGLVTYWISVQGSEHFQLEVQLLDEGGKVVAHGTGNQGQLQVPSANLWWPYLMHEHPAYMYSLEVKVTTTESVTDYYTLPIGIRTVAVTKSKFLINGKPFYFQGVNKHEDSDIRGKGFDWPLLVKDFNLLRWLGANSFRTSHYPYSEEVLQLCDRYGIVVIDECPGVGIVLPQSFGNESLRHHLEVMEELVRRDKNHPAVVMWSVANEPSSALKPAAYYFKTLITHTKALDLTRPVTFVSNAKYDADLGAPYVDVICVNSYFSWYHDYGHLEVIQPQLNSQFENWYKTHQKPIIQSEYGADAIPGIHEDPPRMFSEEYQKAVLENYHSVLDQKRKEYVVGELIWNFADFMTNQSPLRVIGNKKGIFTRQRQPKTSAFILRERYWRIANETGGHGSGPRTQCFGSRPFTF
Description: Naïve mice were sacrificed by exsanguination to obtain skin samples from the back. After shaving with an electric razor, the skin was excised and homogenized in cold PBS at 20 mg/mL. After centrifugation at 10,000× g for 20 min at 4 °C, supernatants were harvested and stored at −80 °C until use.
To examine β-glucuronidase activity in skin tissue, baicalin (final 10 μmol/L) was added as a substrate to skin homogenate in 24-well plates. Alternatively, to examine β-glucuronidase activity in macrophages, baicalin (final 10 μmol/L) was added to live RAW264.7 cells seeded at 1 × 10^5 cells/0.5 mL/well or to cell lysates in 24-well plates. After 24 h incubation in a 5% CO2 incubator, supernatants were harvested and stored at −80 °C until measurement of baicalin and baicalein by LC-MS/MS as described above.

[4] = system: macrophage; design: method as in doi:10.24294/ti.v1.i1.31; conditions: previous data; cited from earlier work
[5] = Exp. 1, 10 μmol/L, 3 days, control 155 ± 4
[6] = Sprague-Dawley, rat, in vivo, po
[7] = Sprague-Dawley, rat, in vivo, po, 2 g/kg
[8] = Exp. 2, 1 μmol/L, control 226 ± 12
[9] = Exp. 2, 3 μmol/L, control 226 ± 12
[10] = Exp. 2, 10 μmol/L, control 226 ± 12
[11] = Sprague-Dawley, rat, plasma, po, 2 g/kg

AUC(0-t) [2, 7] | Cmax [2, 7] | Tmax [2, 7] | Tmax [2, 11] | SMILES | phagocytosis by macrophages (result in words) ([1]; 10 μmol/L) | Phagocytosis relative change versus control ([1]; Exp. 1, 10 μmol/L) | Phagocytosis MFI [1, 5] | also measured
0.843 ng·h/mL | 0.14 ng/mL | 4 h |  | O=c1cc(-c2ccc(O)cc2)oc2cc(O)cc(O)c12 [Apigenin, apigenin] | enhanced | 3.3 | 507 ± 11 | Tmax [2, 6]: 10.0 h
 |  |  |  | O=c1cc(-c2ccccc2)oc2cc(O)c(O)c(O)c12 [Baicalein, baicalein] | enhanced | 3.4 | 530 ± 6 | Phagocytosis relative change versus control ([1]; Exp. 2, 1 μmol/L): 1.0; Phagocytosis MFI [1, 8]: 223 ± 10; Phagocytosis relative change versus control ([1]; Exp. 2, 3 μmol/L): 2.0; Phagocytosis MFI [1, 9]: 445 ± 7; Phagocytosis relative change versus control ([1]; Exp. 2, 10 μmol/L): 3.8; Phagocytosis MFI [1, 10]: 866 ± 25; Cmax ([2]; Sprague-Dawley, rat, plasma, oral, 2 g/kg): 1320 ng/mL; Cmax ([2]; rat plasma, no β-glucuronidase treatment, KRT 2 g/kg oral, BQL for baicalein = 125 ng/mL): BQL ^#; Cmax ([2]; rat plasma, no β-glucuronidase treatment, KRT 2 g/kg oral, BQL for baicalein = 125 ng/mL, listed as baicalein): BQL
9.65 ng·h/mL | 0.998 ng/mL | 24 h |  | O=c1c(-c2ccc(O)cc2)coc2cc(O)cc(O)c12 [Genistein, genistein] | enhanced | 3.4 | 525 ± 22 | plasma concentration ([2]; β-glucuronidase-treated plasma until 6 h after KRT administration, detected at 10 and 24 h): below the detection limit
 |  |  | 1 h | CC1(C)[C@@H](O[C@H]2O[C@H](C(=O)O)[C@@H](O)[C@H](O)[C@H]2O[C@@H]2O[C@H](C(=O)O)[C@@H](O)[C@H](O)[C@H]2O)CC[C@]2(C)[C@H]3C(=O)C=C4[C@@H]5C[C@@](C)(C(=O)O)CC[C@]5(C)CC[C@@]4(C)[C@]3(C)CC[C@@H]12 [Glycyrrhizic acid, glycyrrhizic acid] |  |  |  | Cmax [2, 11]: 2.88 ng/mL
 |  |  | 4 h | COc1ccc([C@@H]2CC(=O)c3c(O)cc(O)cc3O2)cc1O [Hesperetin, hesperetin] | did not | 1.2 | 193 ± 12 | AUC(0-t) [2, 11]: 2.83 ng·h/mL; Cmax [2, 11]: 0.644 ng/mL
 |  |  | 4 h | O=C1C[C@@H](c2ccc(O)cc2)Oc2cc(O)ccc21 [Liquiritigenin, liquiritigenin] | enhanced | 1.6 | 245 ± 4 | AUC(0-t) [2, 11]: 8.68 ng·h/mL; Cmax [2, 11]: 2.11 ng/mL
21.3 ng·h/mL | 4.7 ng/mL | 6 h |  | O=c1cc(-c2ccc(O)c(O)c2)oc2cc(O)cc(O)c12 [Luteolin, luteolin] | enhanced | 2.6 | 408 ± 22 | Tmax [2, 6]: 1.00 h; t1/2 [2, 6]: 11.7 h
9.53 ng·h/mL | 1.34 ng/mL | 4 h |  | O=C1C[C@@H](c2ccc(O)cc2)Oc2cc(O)cc(O)c21 [Naringenin, naringenin] | enhanced | 1.5 | 236 ± 10 | half-life [2, 7]: 3.01 h
71.5 ng·h/mL | 16.3 ng/mL | 4 h |  | COc1c(O)cc(O)c2c(=O)cc(-c3ccccc3)oc12 [Wogonin, wogonin] | enhanced | 1.7 | 271 ± 16 | 
 | 121 ng/mL | 6 h |  | CC1(C)[C@@H](O)CC[C@]2(C)[C@H]3C(=O)C=C4[C@@H]5C[C@@](C)(C(=O)O)CC[C@]5(C)CC[C@@]4(C)[C@]3(C)CC[C@@H]12 [glycyrrhetinic acid] |  |  |  | macrophage phagocytosis-enhancing activity [4]: no macrophage phagocytosis-enhancing activity
 |  |  | 6 h | COc1c(O[C@@H]2O[C@H](C(=O)O)[C@@H](O)[C@H](O)[C@H]2O)cc(O)c2c(=O)cc(-c3ccccc3)oc12 [wogonoside, wogonin 7-O-glucuronide] |  |  |  | AUC(0-t) [2, 11]: 3400 ng·h/mL

SMILES | AUC(0-t) [2, 7] | Cmax [2, 7] | Tmax [2, 7] | Tmax [2, 11] | phagocytosis by macrophages (result in words) ([1]; 10 μmol/L) | Phagocytosis relative change versus control ([1]; Exp. 1, 10 μmol/L) | Phagocytosis MFI [1, 5] | also measured
O=C(O)[C@H]1O[C@@H](Oc2cc3oc(-c4ccccc4)cc(=O)c3c(O)c2O)[C@H](O)[C@@H](O)[C@@H]1O [baicalin, baicalein 7-O-glucuronide] | 10100 ng·h/mL | 1020 ng/mL | 4 h |  | promoted |  |  | deconjugation of baicalin to aglycone baicalein [3]: almost completely deconjugated to baicalein; Phagocytosis relative change versus control ([1]; Exp. 2, 1 μmol/L): 1.1; Phagocytosis MFI [1, 8]: 238 ± 9; Phagocytosis relative change versus control ([1]; Exp. 2, 3 μmol/L): 1.2; Phagocytosis MFI [1, 9]: 269 ± 10; Phagocytosis relative change versus control ([1]; Exp. 2, 10 μmol/L): 2.4; Phagocytosis MFI [1, 10]: 531 ± 19; half-life [2, 7]: 3.53 h
